The values below come from the METLIN SMRT retention time set (Domingo-Almenara et al. 2019).

A short description of the series: gradient 5% acetonitrile 3 min, to 50% in 2 min, to 85% in 15 min, held 3 min, 100 µL/min. Conditions: column: Zorbax Extend-C18 2.1 x 50 mm; eluents: water / acetonitrile, 0.1% formic acid. In a few lines: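 Values are retention times taken from adduct peaks that software picked and an analyst inspected. The pure standards were run as mixtures of ~100 molecules on HPLC linked to a quadrupole time-of-flight mass spectrometer, in positive and negative ionization mode. A Zorbax Extend-C18 column (2.1 × 50 mm, 1.8 μm) was used at 100 μL/min with water and acetonitrile, each including 0.1% formic acid.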
In turn, `Cc1nc2cc3c(cc2n1CC(=O)NC(C)c1ccc2c(c1)OCCCO2)OCCO3` (centres undefined) gave an RP-LC retention time of 634 s.
On to `COc1ccc(CCNS(=O)(=O)c2c(N)n(C)c(=O)n(C)c2=O)cc1OC`, for which the RP-LC retention time came out at 605 s.
As to `COc1ccc(CNC(=O)CN2CCc3[nH]c4c(C)c(Cl)ccc4c(=O)c3C2)cc1`, the RP-LC retention time came to 638 s.
In turn, `CCOCCCNC(=O)c1ccc2c(c1)NC(=O)C1CCCCN21` (centres undefined) had an RP-LC retention time of 686 s.
With `CCOc1ccc(S(=O)(=O)N2CCC(C(=O)NCCO)CC2)cc1`, the RP-LC retention time stood at 665 s.
The same measure for `COc1ccc(C(=O)CSc2nc(CC(=O)NCc3cccnc3)cs2)cc1`: 589 s; for `CC1CCN(C(=O)CCNc2c(-c3ccc(F)cc3)nc3cnccn23)CC1`: 794 s; for `Cc1ccc(C2=NC3(CCN(C(=O)c4ccsc4)CC3)ON2)cc1`: 737 s.
In turn, `COC1CCC12CCN(Cc1cccc(F)c1)CC2` (centres undefined) came in with an RP-LC retention time of 637 s.
`Cc1ccc(-c2csc(NC(=O)COc3ccc(Cl)cc3Cl)n2)cc1` registered an RP-LC retention time of 1180 s.
The same measure for `COc1ccccc1NC(=O)Cn1c(C(F)(F)F)nc2cc3c(cc21)OCCO3`: 886 s; for `Cc1cc(C)cc(N2C(=O)N(CC(=O)N3CCOc4ccc(C)cc43)C3CS(=O)(=O)CC32)c1` (centres undefined): 962 s; for `Cc1ccccc1CNC1=NCCNC12CCN(S(=O)(=O)c1ccccc1C)CC2`: 729 s.
The same measure for `Cc1ccccc1-c1nc(-c2ccc(N3CCSCC3)nc2)no1`: 1320 s; for `CCN(CC)CCNS(=O)(=O)c1cc(-c2cc(C)[nH]n2)sc1C`: 589 s.
The same measure for `Cc1ccc(N2CC(NC(=O)Nc3ncccc3C)CC2=O)cc1` (centres undefined): 573 s; for `COc1cc2c(cc1OC)C(C(=O)NCC1COc3ccccc3O1)C(c1cccs1)N(C)C2=O` (centres undefined): 842 s.
In the case of `CCC1CCCCN1c1cc(C)nc2nc(-c3ccc(C)cc3)nn12` (centres undefined), the RP-LC retention time turned out to be 1160 s.
The same measure for `CCCn1cc(CCNC(=O)Nc2c(F)cccc2F)c2cccnc21`: 699 s.
Consider `O=C(Nc1ccc2c(c1)OCCO2)C1CCN(c2cnc3nccnc3c2)CC1`, for which the RP-LC retention time is 666 s.
The same measure for `CSc1ccc(-c2nc3ncccn3c2Nc2c(C)cccc2C)cc1`: 864 s.
The same measure for `Cc1ccc(-n2ncc3c(NCCN4CCOCC4)ncnc32)cc1Cl`: 613 s; for `CCCN(CC1CCOC1)C(=O)Nc1cccc(Cl)c1F` (centres undefined): 853 s.
The same measure for `CC(C)Cc1ccc(S(=O)(=O)N2CCc3c(c(-c4nnc(-c5ccccc5)o4)nn3C)C2)cc1`: 1150 s; for `Cc1ccc(-c2cnc(N3CCCC(C(=O)NCCC4=CCCCC4)C3)nc2)cc1` (centres undefined): 1290 s; for `Cn1cccc(C(=O)Nc2nc3c(s2)CN(S(=O)(=O)C2CC2)CC3)c1=O`: 645 s.
Compound `COc1ccc(OC)c(CNC(=O)CCC2CCN(S(=O)(=O)c3ccccc3)CC2)c1` registered an RP-LC retention time of 875 s.
In turn, `CCOC(=O)c1noc2nc(C)nc(NCc3ccc(CC)cc3)c12` displayed an RP-LC retention time of 722 s.
On to `COc1ccc(Cc2nc3nccc(-c4ccc(F)cc4OC)n3n2)cc1`, for which the RP-LC retention time stood at 871 s.
The compound `O=C(Cn1ccn2nc(-c3ccc(F)cc3)c(CO)c2c1=O)Nc1cc(F)cc(F)c1` showed an RP-LC retention time of 880 s.
Compound `NS(=O)(=O)c1cccnc1Nc1cccc(Br)c1` returned an RP-LC retention time of 889 s.
For `COC(=O)c1sccc1NC(=O)Cn1cc(-c2nc(-c3ccc(Cl)cc3)no2)ccc1=O`, the RP-LC retention time was found to be 1100 s.
Turning to `Cn1cc(C(=O)NCc2ccccn2)c2cccnc21`, the RP-LC retention time was found to be 552 s.
The same measure for `CCn1ncc(NC(=O)c2cccc(F)c2)c(N2CCOCC2)c1=O`: 788 s.
